Data as given in patent US11535630B2, “Apelin receptor (APJ) agonists and uses thereof” (Research Triangle Institute, priority 2015, dated 2022).

Biological target: T1, apelin receptor (APJ) (Homo sapiens, UniProt P35414)
T1 sequence (P35414 1-380): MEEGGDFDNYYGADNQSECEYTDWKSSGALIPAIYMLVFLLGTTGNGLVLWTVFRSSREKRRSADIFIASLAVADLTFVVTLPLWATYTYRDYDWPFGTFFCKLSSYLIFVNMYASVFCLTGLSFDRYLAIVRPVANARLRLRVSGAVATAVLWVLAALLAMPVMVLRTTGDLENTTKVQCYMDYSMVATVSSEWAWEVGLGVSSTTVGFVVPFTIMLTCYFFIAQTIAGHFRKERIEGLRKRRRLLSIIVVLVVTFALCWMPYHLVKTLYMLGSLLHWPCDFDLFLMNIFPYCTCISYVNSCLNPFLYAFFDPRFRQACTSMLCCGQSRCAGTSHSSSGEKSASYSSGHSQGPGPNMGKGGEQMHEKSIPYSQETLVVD
Experiment: In vitro apelin agonist activity (methods of Giddings et al., Apelin-13 as positive control)
Assay type: cell-based
Settings: in vitro apelin agonist activity, methods of Giddings et al., Apelin-13 as positive control; read-out: EC50 (nM) Ave
Source text: Characterization of the Apelin Agonist Activity of the Compounds
1:39-47, the contents of which are hereby incorporated by reference in its entirety. Using the methods described in Giddings et al. and Apelin-13 as a positive control.

| SMILES | EC50 [nM] |
| --- | --- |
| O=C(N[C@@H](CCN1CCCC(F)(F)C1)Cc1nnn[nH]1)c1cc(-c2ncccc2C(F)(F)F)n(C2CCCC2)n1 [compound 641] | 27 |
| Cc1nnc(C[C@H](CCN2CCCC(F)(F)C2)NC(=O)c2cc(-c3ccccc3Cl)n(C3CCCC3)n2)[nH]1 [compound 458, 5-(2-chlorophenyl)-1-cyclopentyl-N-[(2S)-4-(3,3-difluoropiperidin-1-yl)-1-(5-methyl-4H-1,2,4-triazol-3-yl)butan-2-yl]-1H-pyrazole-3-carboxamide] | 261 |
| O=C(O)C[C@H](CCN1CCCC(F)(F)C1)NC(=O)c1cc(-c2cnccc2Cl)n(C2CCCC2)n1 [compound 467, (3S)-3-{[5-(4-chloropyridin-3-yl)-1-cyclopentyl-1H-pyrazol-3-yl]formamido}-5-(3,3-difluoropiperidin-1-yl)pentanoic acid] | > 10000 |
| Cc1cc(C)n(CC[C@@H](CC(=O)NC2CCC2)NC(=O)c2cc(-c3ccccc3C(F)(F)F)n(C3CCCC3)n2)n1 [compound 503, (3S)-N-cyclobutyl-3-({1-cyclopentyl-5-[2-(trifluoromethyl)phenyl]-1H-pyrazol-3-yl}formamido)-5-(3,5-dimethyl-1H-pyrazol-1-yl)pentanamide] | 157 |
| O=C(O)C[C@H](CCN1CCC[C@H](F)C1)NC(=O)c1cc(-c2ccccc2C(F)(F)F)n(C2CCCC2)n1 [compound 583, (3S)-3-({1-cyclopentyl-5-[2-(trifluoromethyl)phenyl]-1H-pyrazol-3-yl}formamido)-5-[(3S)-3-fluoropiperidin-1-yl]pentanoic acid] | 302 |
| O=C(N[C@@H]1CC(=O)N(c2ccc(F)cc2)C1=O)c1cc(-c2ccccc2C(F)(F)F)n(C2CCCC2)n1 [compound 563, 1-cyclopentyl-N-[(3R)-1-(4-fluorophenyl)-2,5-dioxopyrrolidin-3-yl]-5-[2-(trifluoromethyl)phenyl]-1H-pyrazole-3-carboxamide] | > 10000 |
| O=C(N[C@@H](CCN1C[C@H](F)[C@@H](F)C1)Cc1nnn[nH]1)c1cc(-c2ccccc2C(F)(F)F)n(C2CCCC2)n1 [compound 630] | 24 |
| O=C(CCNC(=O)c1cc(-c2ccccc2C(F)(F)F)n(C2CCCC2)n1)Nc1nccs1 [compound 449, 3-({1-cyclopentyl-5-[2-(trifluoromethyl)phenyl]-1H-pyrazol-3-yl}formamido)-N-(1,3-thiazol-2-yl)propanamide] | 12700 |
| CN(CC[C@@H](CC(=O)NC1CCC1)NC(=O)c1cc(-c2ccccc2C(F)(F)F)n(C2CCCC2)n1)C1CCCCC1 [compound 483] | 14 |
| C[C@@H]1CC(F)(F)CN1CC[C@@H](CC(=O)O)NC(=O)c1cc(-c2ccccc2C(C)(F)F)n(C2CCCC2)n1 [compound 605, (3S)-3-({1-cyclopentyl-5-[2-(1,1-difluoroethyl)phenyl]-1H-pyrazol-3-yl]formamido)-5-[(2R)-4,4-difluoro-2-methylpyrrolidin-1-yl]pentanoic acid] | 11 |
| C[C@@H](C[C@@H](CC(=O)O)NC(=O)c1cc(-c2ccccc2C(F)(F)F)n(C2CCCC2)n1)N1CCC(F)(F)C1 [compound 572, (3S,5S)-3-({1-cyclopentyl-5-[2-(trifluoromethyl)phenyl]-1H-pyrazol-3-yl}formamido)-5-(3,3-difluoropyrrolidin-1-yl)hexanoic acid] | 124 |
| C[C@@H](C[C@@H](CC(=O)O)NC(=O)c1cc(-c2ccccc2C(F)(F)F)n(C2CCCC2)n1)N1CCCC(F)(F)C1 [compound 576, (3S,5S)-3-({1-cyclopentyl-5-[2-(trifluoromethyl)phenyl]-1H-pyrazol-3-yl}formamido)-5-(3,3-difluoropiperidin-1-yl)hexanoic acid] | 1370 |
| O=C(C[C@H](COc1ccc(F)cc1)NC(=O)c1cc(-c2ccccc2C(F)(F)F)n(C2CCCC2)n1)NC1CCC1 [compound 546, (3R)-N-cyclobutyl-3-({1-cyclopentyl-5-[2-(trifluoromethyl)phenyl]-1H-pyrazol-3-yl}formamido)-4-(4-fluorophenoxy)butanamide] | 114 |
| O=C(O)C[C@H](CCN1CCCC(F)(F)C1)NC(=O)c1cc(-c2ccccc2C(F)(F)F)n(C2CCOCC2)n1 [compound 553, (3S)-5-(3,3-difluoropiperidin-1-yl)-3-{[1-(oxan-4-yl)-5-[2-(trifluoromethyl)phenyl]-1H-pyrazol-3-yl]formamido}pentanoic acid] | 1480 |
| CCc1ccccc1-c1cc(C(=O)N[C@@H](CCN2CCC(F)(F)CC2)CC(=O)O)nn1C1CCCC1 [compound 405, (3S)-3-{[1-cyclopentyl-5-(2-ethylphenyl)-1H-pyrazol-3-yl]formamido}-5-(4,4-difluoropiperidin-1-yl)pentanoic acid] | 227 |
| O=C(O)C[C@H](CCN1CCCC(F)(F)C1)NC(=O)c1nc(-c2cccnc2C(F)(F)F)n(C2CCCC2)n1 [compound 525] | > 10000 |
| O=C(C[C@H](CCN1C2CCCC1CC2)NC(=O)c1cc(-c2ccccc2C(F)(F)F)n(C2CCCC2)n1)NC1CCC1 [compound 498, (3S)-5-{8-azabicyclo[3.2.1]octan-8-yl}-N-cyclobutyl-3-({1-cyclopentyl-5-[2-(trifluoromethyl)phenyl]-1H-pyrazol-3-yl}formamido)pentanamide] | 105 |
| C[C@@H](C[C@@H](CC(=O)O)NC(=O)c1cc(-c2ccccc2C(C)(F)F)n(C2CCCC2)n1)N1CCC(F)(F)C1 [compound 600, (3S,5S)-3-({1-cyclopentyl-5-[2-(1,1-difluoroethyl)phenyl]-1H-pyrazol-3-yl}formamido)-5-(3,3-difluoropyrrolidin-1-yl)hexanoic acid] | 67 |

Second part, the compound after the results:

| EC50 [nM] | SMILES |
| --- | --- |
| 200 | COc1cccc(OC)c1-c1cc(C(=O)N[C@@H](CCN2CCCCC2)Cc2nnc[nH]2)nn1C1CCCC1 [compound 414] |
| 14.5 | CCc1ccccc1-c1cc(C(=O)N[C@@H](CCN2CCC(F)(F)CC2)CC(=O)NC2CCC2)nn1C1CCCC1 [compound 411, (3S)-N-cyclobutyl-3-{[1-cyclopentyl-5-(2-ethylphenyl)-1H-pyrazol-3-yl]formamido}-5-(4,4-difluoropiperidin-1-yl)pentanamide] |
| 3840 | Cc1cccc(C)c1-c1cc(C(=O)N[C@@H](CCN2CCCCC2)CC(=O)NC2CCC2)nn1C1CCCC1 [compound 371, (3S)-N-cyclobutyl-3-{[1-cyclopentyl-5-(2,6-dimethylphenyl)-1H-pyrazol-3-yl]formamido}-5-(piperidin-1-yl)pentanamide] |
| 5 | CCc1ccccc1-c1cc(C(=O)N[C@@H](CCN2CCCC(F)(F)C2)CC(=O)NC2CCC2)nn1C1CCCC1 [compound 412, (3S)-N-cyclobutyl-3-{[1-cyclopentyl-5-(2-ethylphenyl)-1H-pyrazol-3-yl]formamido}-5-(3,3-difluoropiperidin-1-yl)pentanamide] |
| 94 | COc1cccc(OC)c1-c1cc(C(=O)N[C@@H](CCc2ccccc2)CC(=O)Nc2nccs2)nn1C1CCCC1 [compound 380, (3S)-3-{[1-cyclopentyl-5-(2,6-dimethoxyphenyl)-1H-pyrazol-3-yl]formamido}-5-phenyl-N-(1,3-thiazol-2-yl)pentanamide] |
| 22 | CCc1ccccc1-c1cc(C(=O)N[C@@H](CCN2CCCCC2)CC(=O)Nc2nccs2)nn1C1CCCC1 [compound 406, (3S)-3-{[1-cyclopentyl-5-(2-ethylphenyl)-1H-pyrazol-3-yl]formamido}-5-(piperidin-1-yl)-N-(1,3-thiazol-2-yl)pentanamide] |
| 391 | COc1cccc(OC)c1-c1cc(C(=O)N[C@@H](CCN2CCCCC2)CC(=O)NC2CCOCC2)nn1C1CCCC1 [compound 332, (3S)-3-{[1-cyclopentyl-5-(2,6-dimethoxyphenyl)-1H-pyrazol-3-yl]formamido}-N-(oxan-4-yl)-5-(piperidin-1-yl)pentanamide] |
| 376 | CSc1ccccc1-c1cc(C(=O)N[C@@H](CCN2CCCCC2)CC(=O)NC2CCC2)nn1C1CCCC1 [compound 360, (3S)-N-cyclobutyl-3-({1-cyclopentyl-5-[2-(methylsulfanyl)phenyl]-1H-pyrazol-3-yl]formamido)-5-(piperidin-1-yl)pentanamide] |
| 1220 | O=C(C[C@H](CCN1CCCC(F)(F)C1)NC(=O)c1cc(-c2cnccc2Cl)n(C2CCCC2)n1)NC1CCC1 [compound 466, (3S)-3-{[5-(4-chloropyridin-3-yl)-1-cyclopentyl-1H-pyrazol-3-yl]formamido}-N-cyclobutyl-5-(3,3-difluoropiperidin-1-yl)pentanamide] |
| > 10000 | COc1cccc(OC)c1-c1cc(C(=O)N[C@@H](CCN2CCN(C)CC2)CC(=O)O)nn1C1CCCC1 [compound 308, (3S)-3-{[1-cyclopentyl-5-(2,6-dimethoxyphenyl)-1H-pyrazol-3-yl]formamido}-5-(4-methylpiperazin-1-yl)pentanoic acid] |
| > 10000 | COc1cccc(OC)c1-c1cc(C(=O)N[C@H](CCO)CCN2CCCCC2)nn1C1CCCC1 [compound 358] |
| > 10000 | COc1cccc(OC)c1-c1cc(C(=O)N[C@H](CCNC2CCC2)CCN2CCCCC2)nn1C1CCCC1 [compound 398, N-[(3R)-1-(cyclobutylamino)-5-(piperidin-1-yl)pentan-3-yl]-1-cyclopentyl-5-(2,6-dimethoxyphenyl)-1H-pyrazole-3-carboxamide] |
| 12 | COc1cccc(OC)c1-c1cc(C(=O)N[C@@H](CCN2CCCCC2)CC(=O)Nc2nccs2)nn1C1CCCC1 [compound 338, (3S)-3-{[1-cyclopentyl-5-(2,6-dimethoxyphenyl)-1H-pyrazol-3-yl]formamido}-5-(piperidin-1-yl)-N-(1,3-thiazol-2-yl)pentanamide] |
